In patent US20240269304A1, “BCL-XL INHIBITOR ANTIBODY-DRUG CONJUGATES AND METHODS OF USE THEREOF” (Novartis AG, priority 2020, published 2024) one finds IC50 data, which are given here for 15 compounds.

This test relates to H1650 cells. The experiment in a line: CellTiterGlo (CTG) cell viability, 3D, 120 h, H1650 (Example 8). To be noted: Homo sapiens, NCI-H1650, H1650 3D. In kind it is cell-based, human. As to the method:
H1650 cells were cultivated in RPMI supplemented with 10% heat inactivated fetal bovine serum, penicillin (100 IU/ml), streptomycin (100 μg/ml) and L-glutamine (2 mM). Cell lines were cultured at 37° C. in a humidified atmosphere containing 5% 002. Cells were seeded in 96 microwell round bottom plates (96 microwell Low attachment plates , Costar reference 7007) and exposed to the payloads or ADCs for 120 h (serially diluted; 9 concentrations each, duplicates). Effects of payloads or ADCs on cell viability were assessed after 5 days of incubation at 37° C./5% CO2 by quantification of cellular ATP levels using CellTiterGlo at 75 μL reagent/well. All the conditions were tested in duplicates. Luminescence was quantified on a multipurpose plate reader. IC50S were calculated using standard four-parametric curve fitting. […] Each experiment was performed at least twice, with results being reproducible.

Where [1] appears, read: experiment n1, read-out: H1650 3D CTG IC50 n1.
The mark [2] stands for this setting: experiment n2, read-out: H1650 3D CTG IC50 n2.
Where [3] appears, read: mean of n1 and n2, read-out: H1650 3D CTG IC50 Mean of n1 and n2.

Like-named read-outs stand apart in the source and are kept apart here.

Take `COCCCNCCCC12CC3(C)CC(C)(C1)CC(Cn1ncc(-c4ccc(N5CCCc6c5nnc(Nc5nc7ccccc7s5)c6C)nc4C(=O)O)c1C)(C3)C2` [P51, 6-[3-(1,3-benzothiazol-2-ylamino)-4-methyl-6,7-dihydro-5H-pyrido[2,3-c]pyridazin-8-yl]-3-[1-[[3-[3-(3-methoxypropylamino)propyl]-5,7-dimethyl-1-adamantyl]methyl]-5-methyl-pyrazol-4-yl]pyridine-2-carboxylic acid]: the IC50 was 1.97 nM under setting [1], 2.83 nM under setting [2] and 2.4 nM under setting [3].

On to `Cc1c(Nc2nc3ccccc3s2)nnc2c1CCCN2c1ccc(-c2cnn(CC34CC5(C)CC(C)(CC(CCCN6CCCCCC6)(C5)C3)C4)c2C)c(C(=O)O)n1` [P52, 3-[1-[[3-[3-(azepan-1-yl)propyl]-5,7-dimethyl-1-adamantyl]methyl]-5-methyl-pyrazol-4-yl]-6-[3-(1,3-benzothiazol-2-ylamino)-4-methyl-6,7-dihydro-5H-pyrido[2,3-c]pyridazin-8-yl]pyridine-2-carboxylic acid], for which the IC50 under setting [1] is 0.73 nM, the IC50 under setting [2] is 0.38 nM and the IC50 under setting [3] stood at 0.555 nM.

Regarding `Cc1c(Nc2nc3ccccc3s2)nnc2c1CCCN2c1ccc(-c2cnn(CC34CC5(C)CC(C)(CC(CCCNCC(=O)O)(C5)C3)C4)c2C)c(C(=O)O)n1` [P53, 6-[3-(1,3-benzothiazol-2-ylamino)-4-methyl-6,7-dihydro-5H-pyrido[2,3-c]pyridazin-8-yl]-3-[1-[[3-[3-(carboxymethylamino)propyl]-5,7-dimethyl-1-adamantyl]methyl]-5-methyl-pyrazol-4-yl]pyridine-2-carboxylic acid], the IC50 by setting is: under setting [1], 37.7 nM; under setting [2], 35 nM; under setting [3], 36.4 nM.

With `Cc1c(Nc2nc3ccccc3s2)nnc2c1CCCN2c1ccc(-c2cnn(CC34CC5(C)CC(C)(CC(CCCNCCC(=O)O)(C5)C3)C4)c2C)c(C(=O)O)n1` [P54, 6-[3-(1,3-benzothiazol-2-ylamino)-4-methyl-6,7-dihydro-5H-pyrido[2,3-c]pyridazin-8-yl]-3-[1-[[3-[3-(2-carboxyethylamino)propyl]-5,7-dimethyl-1-adamantyl]methyl]-5-methyl-pyrazol-4-yl]pyridine-2-carboxylic acid], the IC50 is 10.7 nM under setting [1], 11.8 nM under setting [2] and 11.2 nM under setting [3].

As for `Cc1c(Nc2nc3ccccc3s2)nnc2c1CCCN2c1ccc(-c2cnn(CC34CC5(C)CC(C)(CC(CCCN(C)CC(=O)O)(C5)C3)C4)c2C)c(C(=O)O)n1` [P55, 6-[3-(1,3-benzothiazol-2-ylamino)-4-methyl-6,7-dihydro-5H-pyrido[2,3-c]pyridazin-8-yl]-3-[1-[[3-[3-[carboxymethyl(methyl)amino]propyl]-5,7-dimethyl-1-adamantyl]methyl]-5-methyl-pyrazol-4-yl]pyridine-2-carboxylic acid], the IC50 reads like this: under setting [1], 6.15 nM; under setting [2], 6.88 nM; under setting [3], 6.51 nM.

As for `Cc1c(Nc2nc3ccccc3s2)nnc2c1CCCN2c1ccc(-c2cnn(CC34CC5(C)CC(C)(CC(CCCN(C)CCC(=O)O)(C5)C3)C4)c2C)c(C(=O)O)n1` [P56, 6-[3-(1,3-benzothiazol-2-ylamino)-4-methyl-6,7-dihydro-5H-pyrido[2,3-c]pyridazin-8-yl]-3-[1-[[3-[3-[2-carboxyethyl(methyl)amino]propyl]-5,7-dimethyl-1-adamantyl]methyl]-5-methyl-pyrazol-4-yl]pyridine-2-carboxylic acid], the IC50 was determined as 13.9 nM under setting [1], 2.95 nM under setting [2] and 8.43 nM under setting [3].

Regarding `Cc1c(Nc2nc3ccccc3s2)nnc2c1CCCN2c1ccc(-c2cnn(CC34CC5(C)CC(C)(C3)CC(OCCN(C)CCCC(=O)O)(C5)C4)c2C)c(C(=O)O)n1` [P57, 6-[3-(1,3-benzothiazol-2-ylamino)-4-methyl-6,7-dihydro-5H-pyrido[2,3-c]pyridazin-8-yl]-3-[1-[[3-[2-[3-carboxypropyl(methyl)amino]ethoxy]-5,7-dimethyl-1-adamantyl]methyl]-5-methyl-pyrazol-4-yl]pyridine-2-carboxylic acid], the IC50 under setting [1] is 6.75 nM, the IC50 under setting [2] was 14.3 nM and the half-inhibitory concentration (IC50) under setting [3] was 10.5 nM.

`Cc1c(Nc2nc3ccccc3s2)nnc2c1CCCN2c1ccc(-c2cnn(CC34CC5(C)CC(C)(CC(CCCN(C)CCCC(=O)O)(C5)C3)C4)c2C)c(C(=O)O)n1` [P58, 6-[3-(1,3-benzothiazol-2-ylamino)-4-methyl-6,7-dihydro-5H-pyrido[2,3-c]pyridazin-8-yl]-3-[1-[[3-[3-[3-carboxypropyl(methyl)amino]propyl]-5,7-dimethyl-1-adamantyl]methyl]-5-methyl-pyrazol-4-yl]pyridine-2-carboxylic acid]: the IC50 amounted to 5.73 nM under setting [1], 9.08 nM under setting [2] and 7.41 nM under setting [3].

In the case of `Cc1c(Nc2nc3ccccc3s2)nnc2c1CCCN2c1ccc(-c2cnn(CC34CC5(C)CC(C)(C3)CC(OCCN(C)CCCO)(C5)C4)c2C)c(C(=O)O)n1` [P62, 6-[3-(1,3-benzothiazol-2-ylamino)-4-methyl-6,7-dihydro-5H-pyrido[2,3-c]pyridazin-8-yl]-3-[1-[[3-[2-[3-hydroxypropyl(methyl)amino]ethoxy]-5,7-dimethyl-1-adamantyl]methyl]-5-methyl-pyrazol-4-yl]pyridine-2-carboxylic acid], the IC50 is, setting by setting: under setting [1], 0.52 nM; under setting [3], 0.52 nM.

With `Cc1c(Nc2nc3cc(F)ccc3s2)nnc2c1CCCN2c1ccc(-c2cnn(CC34CC5(C)CC(C)(C3)CC(OCCN3CCCC3)(C5)C4)c2C)c(C(=O)O)n1` [P63, 3-[1-[[3,5-dimethyl-7-(2-pyrrolidin-1-ylethoxy)-1-adamantyl]methyl]-5-methyl-pyrazol-4-yl]-6-[3-[(5-fluoro-1,3-benzothiazol-2-yl)amino]-4-methyl-6,7-dihydro-5H-pyrido[2,3-c]pyridazin-8-yl]pyridine-2-carboxylic acid], the IC50 is, setting by setting: under setting [1], 3.73 nM; under setting [2], 2.03 nM; under setting [3], 2.88 nM.

As to `Cc1ccc2nc(Nc3nnc4c(c3C)CCCN4c3ccc(-c4cnn(CC56CC7(C)CC(C)(C5)CC(OCCN5CCCC5)(C7)C6)c4C)c(C(=O)O)n3)sc2c1` [P64, 3-[1-[[3,5-dimethyl-7-(2-pyrrolidin-1-ylethoxy)-1-adamantyl]methyl]-5-methyl-pyrazol-4-yl]-6-[4-methyl-3-[(6-methyl-1,3-benzothiazol-2-yl)amino]-6,7-dihydro-5H-pyrido[2,3-c]pyridazin-8-yl]pyridine-2-carboxylic acid], the IC50 is, setting by setting: under setting [1], 1.6 nM; under setting [2], 2.9 nM; under setting [3], 2.25 nM.

In the case of `Cc1c(Nc2nc3ccc(F)cc3s2)nnc2c1CCCN2c1ccc(-c2cnn(CC34CC5(C)CC(C)(C3)CC(OCCN3CCCC3)(C5)C4)c2C)c(C(=O)O)n1` [P65, 3-[1-[[3,5-dimethyl-7-(2-pyrrolidin-1-ylethoxy)-1-adamantyl]methyl]-5-methyl-pyrazol-4-yl]-6-[3-[(6-fluoro-1,3-benzothiazol-2-yl)amino]-4-methyl-6,7-dihydro-5H-pyrido[2,3-c]pyridazin-8-yl]pyridine-2-carboxylic acid], the IC50 was 1 nM under setting [1], 1.2 nM under setting [2] and 1.1 nM under setting [3].

Take `Cc1c(Nc2nc3ccccc3s2)nnc2c1CCCN2c1ccc(-c2cnn(CC34CC5(C)CC(C)(CC(CCCN(C)C)(C5)C3)C4)c2C)c(C(=O)O)n1` [P66, 6-[3-(1,3-benzothiazol-2-ylamino)-4-methyl-6,7-dihydro-5H-pyrido[2,3-c]pyridazin-8-yl]-3-[1-[[3-[3-(dimethylamino)propyl]-5,7-dimethyl-1-adamantyl]methyl]-5-methyl-pyrazol-4-yl]pyridine-2-carboxylic acid]: the IC50 runs as follows: under setting [1], 0.49 nM; under setting [2], 0.22 nM; under setting [3], 0.355 nM.

In the case of `Cc1c(Nc2nc3ccccc3s2)nnc2c1CCCN2c1ccc(-c2cnn(CC34CC5(C)CC(C)(CC(CCCN(C)CCCO)(C5)C3)C4)c2C)c(C(=O)O)n1` [P68, 6-[3-(1,3-benzothiazol-2-ylamino)-4-methyl-6,7-dihydro-5H-pyrido[2,3-c]pyridazin-8-yl]-3-[1-[[3-[3-[3-hydroxypropyl(methyl)amino]propyl]-5,7-dimethyl-1-adamantyl]methyl]-5-methyl-pyrazol-4-yl]pyridine-2-carboxylic acid], the IC50 under setting [1] amounted to 0.84 nM, the IC50 under setting [2] worked out at 0.68 nM and the IC50 under setting [3] was found to be 0.76 nM.

For `Cc1c(Nc2nc3ccccc3s2)nnc2c1CCCN2c1ccc(-c2cnn(CC34CC5(C)CC(C)(CC(CCCNCC[C@H](O)CO)(C5)C3)C4)c2C)c(C(=O)O)n1` [P69, 6-[3-(1,3-benzothiazol-2-ylamino)-4-methyl-6,7-dihydro-5H-pyrido[2,3-c]pyridazin-8-yl]-3-[1-[[3-[3-[[(3S)-3,4-dihydroxybutyl]amino]propyl]-5,7-dimethyl-1-adamantyl]methyl]-5-methyl-pyrazol-4-yl]pyridine-2-carboxylic acid], the IC50 by setting is: under setting [1], 3.78 nM; under setting [2], 5.56 nM; under setting [3], 4.67 nM.
